Source: ChEMBL document CHEMBL5346977, “Discovery of Novel d-(+)-Biotin-Conjugated Resorcinol Dibenzyl Ether-Based PD-L1 Inhibitors for Targeted Cancer Immunotherapy” (J Med Chem, 2023)
Active and inactive are the calls of the source. The rule behind the calls is not given here.

Tests used:
[1] = Drug concentration in tumor of C57BL/6 mouse implanted with mouse B16-F10 cells at 50 mg/kg, ip measured after 1 hrs by UPLC-MS/MS analysis; format: ADME, organism-based, Neoplasm; settings: read-out: Ct
[2] = Drug concentration in plasma of C57BL/6 mouse implanted with mouse B16-F10 cells at 50 mg/kg, ip measured after 0.5 hrs by UPLC-MS/MS analysis; format: ADME, organism-based
[3] = Drug concentration in spleen of C57BL/6 mouse implanted with mouse B16-F10 cells at 50 mg/kg, ip measured after 0.5 hrs by UPLC-MS/MS analysis; format: ADME, organism-based; settings: read-out: Ct
[4] = Apparent volume of distribution in Sprague-Dawley rat at 1 mg/kg, iv administered as single dose and measured after 48 hrs by HPLC-MS/MS analysis; format: ADME, organism-based; settings: in vivo, read-out: Vz
[5] = AUC (0 to t) in C57BL/6 mouse at 50 mg/kg, ip measured after 4 hrs by HPLC-MS/MS analysis; format: ADME, organism-based; parameters: time 4 hrs, dose 50 mg/kg, route ip; settings: in vivo
[6] = Cmax in Sprague-Dawley rat at 20 mg/kg, po measured after 48 hrs by HPLC-MS/MS analysis; format: ADME, organism-based; parameters: dose 20 mg/kg, time 48 hrs, route po; settings: in vivo
B16-F10 [7] = experiment: Antitumor activity against mouse B16-F10 cells implanted in allogenic BALB/c mouse assessed as decrease in PD-L1 protein level at 50 mg/kg, ip by flow cytometric analysis; format: functional, organism-based
[8] = Drug concentration in spleen of C57BL/6 mouse implanted with mouse B16-F10 cells at 50 mg/kg, ip measured after 1 hrs by UPLC-MS/MS analysis; format: ADME, organism-based; settings: read-out: Ct
[9] = AUC (0 to infinity) in Sprague-Dawley rat at 20 mg/kg, po measured after 48 hrs by HPLC-MS/MS analysis; format: ADME, organism-based; parameters: dose 20 mg/kg, time 48 hrs, route po; settings: in vivo
B16-F10 [10] = experiment: Antitumor immunity against mouse B16-F10 cells implanted in allogenic BALB/c mouse assessed as increase in CD3+ CD8+ T cells percentage at 50 mg/kg, ip by flow cytometric analysis; format: functional, organism-based
[11] = Tmax in C57BL/6 mouse at 50 mg/kg, ip measured after 4 hrs by HPLC-MS/MS analysis; format: ADME, organism-based; settings: in vivo
[12] = molecular target: T1, Programmed cell death 1 ligand 1 (Mus musculus, UniProt Q9EP73); experiment: Binding affinity to mouse PD-L1 assessed as dissociation constant by MST analysis
HepG2 [13] = experiment: Antitumor immunity activity against human HepG2 cells expressing human PD-L1 co-cultured with human Jurkat T cells expressing human PD-1 assessed as reduction in cell viability at 10 uM incubated for 48 hrs by CCK8 assay relative to control; format: functional
[14] = Tmax in Sprague-Dawley rat at 1 mg/kg, iv administered as single dose and measured after 48 hrs by HPLC-MS/MS analysis; format: ADME, organism-based; settings: in vivo
[15] = Apparent volume of distribution in C57BL/6 mouse at 50 mg/kg, ip measured after 4 hrs by HPLC-MS/MS analysis; format: ADME, organism-based; settings: in vivo
[16] = molecular target: T1, Programmed cell death 1 ligand 1; experiment: Binding affinity to mouse PD-L1 assessed as dissociation constant by SPR analysis
[17] = Initial drug concentration in Sprague-Dawley rat at 1 mg/kg, iv administered as single dose and measured after 48 hrs by HPLC-MS/MS analysis; format: ADME, organism-based; settings: in vivo
[18] = Clearance in Sprague-Dawley rat at 1 mg/kg, iv administered as single dose and measured after 48 hrs by HPLC-MS/MS analysis; format: ADME, organism-based; settings: in vivo
HepG2 [19] = experiment: Antitumor activity against human HepG2 cells assessed as reduction in cell viability at 1.1 to 10 uM incubated for 48 hrs by CCK-8 assay; format: functional, cell-based; settings: dose 1.1-10 µM
[20] = MRT (0 to infinity) in C57BL/6 mouse at 50 mg/kg, ip measured after 4 hrs by HPLC-MS/MS analysis; format: ADME, organism-based; settings: in vivo
B16-F10 [21] = experiment: Antitumor activity against mouse B16-F10 cells implanted in allogenic BALB/c mouse assessed as increase in CXCR3 mRNA level in tumor at 50 mg/kg, ip by qPCR analysis; format: functional, organism-based
B16-F10 [22] = experiment: Antitumor immunity against mouse B16-F10 cells implanted in allogenic BALB/c mouse assessed as increase in CD3+ CD4+ T cells percentage at 50 mg/kg, ip by flow cytometric analysis; format: functional, organism-based
B16-F10 [23] = experiment: Antitumor activity against mouse B16-F10 cells implanted in allogenic BALB/c mouse assessed as increase in CXCL10 mRNA level in tumor at 50 mg/kg, ip by qPCR analysis; format: functional, organism-based
[24] = Half-life in Sprague-Dawley rat at 20 mg/kg, po measured after 48 hrs by HPLC-MS/MS analysis; format: ADME, organism-based; settings: in vivo
[25] = Drug concentration in liver of C57BL/6 mouse implanted with mouse B16-F10 cells at 50 mg/kg, ip measured after 2 hrs by UPLC-MS/MS analysis; format: ADME, organism-based; settings: read-out: Ct
[26] = Toxicity in syngeneic C57BL/6 mouse implanted with mouse B16-F10 cells assessed as effect on body weight at 50 mg/kg, ip measured after 12 days; format: organism-based; settings: in vivo, 288 h, time 12 day
[27] = molecular target: T2, Programmed cell death protein 1/Programmed cell death 1 ligand 1 (Homo sapiens, UniProt Q9NZQ7); experiment: Inhibition of GST-tagged PD-1 (unknown origin)/His-tagged PD-L1 (unknown origin) interaction by HTRF binding assay relative to control; format: protein-complex assay
[28] = Drug concentration in heart of C57BL/6 mouse implanted with mouse B16-F10 cells at 50 mg/kg, ip measured after 0.5 hrs by UPLC-MS/MS analysis; format: ADME, organism-based; settings: read-out: Ct
[29] = Half-life in C57BL/6 mouse at 50 mg/kg, ip measured after 4 hrs by HPLC-MS/MS analysis; format: ADME, organism-based; settings: in vivo
[30] = molecular target: T2, Programmed cell death protein 1/Programmed cell death 1 ligand 1; experiment: Inhibition of interaction of PD-1 (unknown origin) expressed in Jurkat T cells carrying luciferase reporter under the control of NFAT promoter/PD-L1 (unknown origin) expressed in CHO cells co-expressing TCR ligand and T-cell surrogate pretreated with CHO cells for 0.5 hrs followed by Jurkat T cell addition and measured after 5 hrs by luminescence based analysis
B16-F10 [31] = experiment: Antitumor activity against mouse B16-F10 cells implanted in BALB/c mouse assessed as reduction in tumor weight at 50 mg/kg, ip administered once daily for 14 days relative to control; format: functional; parameters: scale not given: the % may be the effect or the level left; settings: time 14 day
[32] = Drug concentration in spleen of C57BL/6 mouse implanted with mouse B16-F10 cells at 50 mg/kg, ip measured after 4 hrs by UPLC-MS/MS analysis; format: ADME, organism-based; settings: read-out: Ct
[33] = Drug concentration in heart of C57BL/6 mouse implanted with mouse B16-F10 cells at 50 mg/kg, ip measured after 2 hrs by UPLC-MS/MS analysis; format: ADME, organism-based; settings: read-out: Ct
[34] = Drug concentration in heart of C57BL/6 mouse implanted with mouse B16-F10 cells at 50 mg/kg, ip measured after 4 hrs by UPLC-MS/MS analysis; format: ADME, organism-based; settings: read-out: Ct
[35] = Drug concentration in brain of C57BL/6 mouse implanted with mouse B16-F10 cells at 50 mg/kg, ip measured after 0.5 hrs by UPLC-MS/MS analysis; format: ADME, organism-based; settings: read-out: Ct
[36] = Drug concentration in plasma of C57BL/6 mouse implanted with mouse B16-F10 cells at 50 mg/kg, ip measured after 2 hrs by UPLC-MS/MS analysis; format: ADME, organism-based

T1 sequence (Q9EP73 whole entry): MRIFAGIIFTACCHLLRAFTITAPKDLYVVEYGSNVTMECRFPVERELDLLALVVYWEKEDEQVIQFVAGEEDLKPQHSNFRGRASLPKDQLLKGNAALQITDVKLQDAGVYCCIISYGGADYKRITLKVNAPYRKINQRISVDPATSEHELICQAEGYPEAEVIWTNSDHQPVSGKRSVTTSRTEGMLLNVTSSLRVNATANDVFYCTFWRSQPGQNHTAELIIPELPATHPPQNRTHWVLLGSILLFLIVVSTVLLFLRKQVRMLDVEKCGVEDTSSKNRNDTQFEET
T2 sequence (Q15116 whole entry): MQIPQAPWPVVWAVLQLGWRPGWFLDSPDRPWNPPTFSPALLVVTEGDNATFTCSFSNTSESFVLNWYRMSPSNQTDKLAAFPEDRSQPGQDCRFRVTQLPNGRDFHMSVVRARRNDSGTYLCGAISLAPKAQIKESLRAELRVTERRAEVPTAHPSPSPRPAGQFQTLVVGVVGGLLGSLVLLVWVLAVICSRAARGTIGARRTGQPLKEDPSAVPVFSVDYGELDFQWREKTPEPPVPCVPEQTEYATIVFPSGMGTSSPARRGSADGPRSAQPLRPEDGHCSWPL
T2 sequence (Q9NZQ7 whole entry): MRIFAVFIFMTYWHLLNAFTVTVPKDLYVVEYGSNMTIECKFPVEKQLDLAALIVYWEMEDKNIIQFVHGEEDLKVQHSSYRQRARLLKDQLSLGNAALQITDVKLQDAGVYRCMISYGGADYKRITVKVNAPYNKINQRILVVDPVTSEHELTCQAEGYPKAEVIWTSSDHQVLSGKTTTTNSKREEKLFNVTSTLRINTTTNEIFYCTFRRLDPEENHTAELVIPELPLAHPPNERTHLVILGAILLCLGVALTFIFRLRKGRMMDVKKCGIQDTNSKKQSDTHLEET

Structure (SMILES): Cc1c(COc2cc(OCc3cccc(C#N)c3)c(CN3CCCCC3C(=O)NCCNC(=O)CCCC[C@@H]3SC[C@@H]4NC(=O)N[C@@H]43)cc2Cl)cccc1-c1ccccc1 (stereo partly specified)
- concentration at 1 h [1]: 28.4 ng/mL
- concentration at 0.5 h [2]: 910 ng/mL
- concentration at 0.5 h [3]: 4570 ng/mL
- Vd [4]: 31 L/kg
- AUCt [5]: 4673.237 µg/L/h
- Cmax [6]: 177 ng/mL
- Activity (B16-F10 [7]): Active
- concentration at 1 h [8]: 3470 ng/mL
- AUC [9]: 1170 ng·h/mL
- Activity (B16-F10 [10]): Active
- Tmax [11]: 2.4 h
- Kd [12]: 438 nM
- Activity (HepG2 [13]): 2.7%
- Tmax [14]: 4.98 min
- Vz [15]: 39.163 L/kg
- Kd [16]: 218 nM
- C0 at 48 h [17]: 257 ng/mL
- clearance [18]: 21.7 mL/min/kg
- Activity (HepG2 [19]): inactive
- MRT inf [20]: 9.84 h
- Activity (B16-F10 [21]): Active
- Activity (B16-F10 [22]): Active
- Activity (B16-F10 [23]): Active
- half-life [24]: 2.6 h
- concentration at 2 h [25]: 1670 ng/mL
- Activity [26]: Non-Toxic
- IC50 [27]: 1.8 nM
- concentration at 0.5 h [28]: 4.7 ng/mL
- t1/2 [29]: 14.587 h
- EC50 [30]: 920 nM
- Activity (B16-F10 [31]): 66.1%
- concentration at 4 h [32]: 7570 ng/mL
- concentration at 2 h [33]: 12.4 ng/mL
- concentration at 4 h [34]: 16.3 ng/mL
- concentration at 0.5 h [35]: 2.5 ng/mL
- concentration at 2 h [36]: 1400 ng/mL
